From US20230304058A1, “NOVEL 5'CAP ANALOG HAVING CAP2 STRUCTURE AND PREPARATION METHOD THEREFOR” (Shenzhen Rhegen Biotechnology Co., Ltd., priority 2020, published 2023)

Experiments:
T7 Enzyme Mix = T7 Enzyme Mix (Escherichia phage T7, UniProt P00573); assay: In vitro transcription mRNA synthesis with cap analog, reaction yield; assay type: biochemical; settings: per ml transcription reaction system; 37° C. for 6 h; LiCl purification
Method: 1. Before synthesizing mRNA, linearize the plasmid with Notl, digested at […] overnight;
2. Extract with DNA template;
React at 37° C. for 6 h. Digest with TURBO DNase for 15 min.
4. Purify the transcription products using LiCl solution and calculate the reaction yields.

mRNA = mRNA capping rate by RNase H cleavage and LC-MS; assay type: biochemical; settings: ratio of capped and uncapped mRNA
Text: The mRNA molecules with different Cap structures obtained in Example 1 were subjected to enzymatic cleavage, and the ratio of capped and uncapped mRNA molecules could be determined in a liquid chromatography-mass spectrometry analysis experiment.
1. Concentrate the beads using a magnet, aspirate the supernatant storage solution, and add an equal volume of 0.1 M NaOH +0.05 M NaCl;
2. Aspirate the supernatant and resuspend the beads with an equal volume of 0.1 M NaCl, keep the concentration constant;
3. Anneal mRNA and cleavage tags, configure the following reaction system;
Gradient annealing: 95° C. 5 min
4. Combining cleavage tags with beads • Beads were centrifuged at 15,000 g for 5 min, and the supernatant was removed, then 120 μl of annealed mRNA and tags were added and incubated for 30 min at room temperature, during which time they were gently shaken to ensure adequate binding.
5. Enzyme cleavage using RNase H; • Add 10 μl RNase H and incubate at 37° C. for 3 h. Precipitate the beads with magnet and discard the supernatant. • Add 100 μl washing buffer, mix thoroughly, magnet precipitate for 2 min, and discard the supernatant. Repeat 3 times. • Wash with DI water for 3 times.
6. Hydrolysis with RppH; • Use 10 units RppH in nebuffer 2 to hydrolyze at room temperature for 1 h.
DI water was aspirated, 100 μl of 75% ethanol preheated to 80° C. was added, incubat for 3 min, and magnet precipitat for 3 min. The supernatant was taken, followed by evaporating, and centrifuge for 45 min to a volume of 10 μl. Finally, the sample was resuspended in 50 μl of […] EDTA/1% MeOH and left for LC-MS analysis.
9. the mRNA capping rate of different Cap analogs synthesized was analyzed with LC-MS.

[1] = test system: TLR3, TLR7, TLR8 and RIG-1; assay: Intracellular immunogenicity of capped mRNA by RNA immunoprecipitation and quantitative PCR; assay type: cell-based; settings: relative to ARCA; Human-derived PBMC cells, 5 μg mRNA, Lipofectamine 2000, 24 h
Method: Experimental methods: the intracellular immunoproteins TLR3, TLR7, TLR8 and RIG-1 were immunoprecipitated together with their bound RNAs by RNA immunoprecipitation, and finally these mRNAs were identified by real-time quantitative PCR, and their relative abundance was proportional to their immunogenicity.
The cells were collected by trypsin digestion 24 h later and resuspended in PBS, centrifuged, and collected.
Fixative was added to the cells, and after 15 minutes glycine was added for termination of fixation, followed by centrifugation to collect the cells. Cells were resuspended by adding lysate, incubated on ice at 4° C. for 30 min, centrifuged at 2400 g for 10 min, and the supernatant was collected.
TLR3, TLR7, TLR8 and RIG-1 antibodies (2-10 μg) were added to the supernatant (6-10 mg) followed by gentle incubation at 4° C. for 2 hours. Protein AIG beads (40 μL) were then added to them and incubated gently for 1 h at 4° C.
Centrifuge at 2500 rpm for 30 seconds with precipitated magnetic beads and remove the supernatant. Resuspend the beads in 500 μL of RIP buffer. Wash in RIP buffer a total of three times, followed by one wash in PBS.
Resuspend magnetic beads in TRIzol RNA Extraction Reagent (1 mL) and isolate co-precipitated RNA, and then elute RNA using nuclease-free water (20 μL).
6. Reverse transcribe (RT) the RNA into cDNA and design primers according to the mRNA sequence for quantitative PCR analysis. mRNA immunogenicity is proportional to the number of mRNA copies precipitated by magnetic beads.

Sequence of T7 Enzyme Mix (P00573 whole entry): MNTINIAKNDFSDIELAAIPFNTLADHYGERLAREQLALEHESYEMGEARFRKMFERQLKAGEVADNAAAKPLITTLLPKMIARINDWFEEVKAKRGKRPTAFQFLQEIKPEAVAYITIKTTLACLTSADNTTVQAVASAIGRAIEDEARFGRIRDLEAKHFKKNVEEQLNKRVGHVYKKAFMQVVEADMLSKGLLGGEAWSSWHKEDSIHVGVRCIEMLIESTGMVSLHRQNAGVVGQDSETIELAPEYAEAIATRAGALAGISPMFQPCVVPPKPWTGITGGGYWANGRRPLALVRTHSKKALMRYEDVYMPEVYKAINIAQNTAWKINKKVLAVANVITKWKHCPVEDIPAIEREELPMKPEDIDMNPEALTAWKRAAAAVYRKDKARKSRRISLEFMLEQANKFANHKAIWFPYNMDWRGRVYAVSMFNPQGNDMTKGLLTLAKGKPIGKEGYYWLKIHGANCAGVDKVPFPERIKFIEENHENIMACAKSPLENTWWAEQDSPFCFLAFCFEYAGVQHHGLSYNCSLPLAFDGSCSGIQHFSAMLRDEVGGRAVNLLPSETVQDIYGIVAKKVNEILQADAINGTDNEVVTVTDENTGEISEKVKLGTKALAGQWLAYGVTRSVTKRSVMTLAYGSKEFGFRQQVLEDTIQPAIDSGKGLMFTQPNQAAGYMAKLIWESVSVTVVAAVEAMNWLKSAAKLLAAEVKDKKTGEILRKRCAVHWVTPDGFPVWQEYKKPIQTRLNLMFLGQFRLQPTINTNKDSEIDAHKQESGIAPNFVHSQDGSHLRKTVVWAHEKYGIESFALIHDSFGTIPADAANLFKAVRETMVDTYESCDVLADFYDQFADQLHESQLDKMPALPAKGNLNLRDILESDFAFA

CO[C@@H]1[C@H](O)[C@@H](COP(=O)(O)O[C@H]2[C@@H](OC)[C@H](n3cnc4c(N)ncnc43)O[C@@H]2COP(=O)(O)OP(=O)(O)OP(=O)([O-])OC[C@H]2O[C@@H](n3c[n+](C)c4c(=O)[nH]c(N)nc43)[C@H](O)[C@@H]2O)O[C@H]1n1cnc2c(=O)[nH]c(N)nc21 [Cap analog 1, m7G(5′)ppp(5′)(2′OMeA)p(2′OMeG)]
Mass of final product obtained from 1 ml mRNA synthesis reaction system (T7 Enzyme Mix): 4.5 mg | mRNA capping rates when using different Cap structures (mRNA): 94.91% | Intracellular immunogenicity of mRNA when using different Cap structures [1]: 0.40

CO[C@@H]1[C@H](O)[C@@H](COP(=O)(O)O[C@H]2[C@@H](OC)[C@H](n3cnc4c(=O)[nH]c(N)nc43)O[C@@H]2COP(=O)(O)OP(=O)(O)OP(=O)([O-])OC[C@H]2O[C@@H](n3c[n+](C)c4c(=O)[nH]c(N)nc43)[C@H](O)[C@@H]2O)O[C@H]1n1cnc2c(=O)[nH]c(N)nc21 [Cap analog 2, m7G(5′)ppp(5′)(2′OMeG)p(2′OMeG)]
Mass of final product obtained from 1 ml mRNA synthesis reaction system (T7 Enzyme Mix): 4.9 mg | mRNA capping rates when using different Cap structures (mRNA): 95.1% | Intracellular immunogenicity of mRNA when using different Cap structures [1]: 0.37

CO[C@@H]1[C@H](OP(=O)(O)OC[C@H]2O[C@@H](n3cnc4c(=O)[nH]c(N)nc43)[C@H](OC)[C@@H]2O)[C@@H](COP(=O)(O)OP(=O)(O)OP(=O)([O-])OC[C@H]2O[C@@H](n3c[n+](C)c4c(=O)[nH]c(N)nc43)[C@H](O)[C@@H]2O)O[C@H]1n1ccc(N)nc1=O [Cap analog 3, m7G(5′)ppp(5′)(2′OMeC)p(2′OMeG)]
Mass of final product obtained from 1 ml mRNA synthesis reaction system (T7 Enzyme Mix): 5.8 mg | mRNA capping rates when using different Cap structures (mRNA): 94.82% | Intracellular immunogenicity of mRNA when using different Cap structures [1]: 0.28

CO[C@@H]1[C@H](OP(=O)(O)OC[C@H]2O[C@@H](n3cnc4c(=O)[nH]c(N)nc43)[C@H](OC)[C@@H]2O)[C@@H](COP(=O)(O)OP(=O)(O)OP(=O)([O-])OC[C@H]2O[C@@H](n3c[n+](C)c4c(=O)[nH]c(N)nc43)[C@H](O)[C@@H]2O)O[C@H]1n1ccc(=O)[nH]c1=O [Cap analog 4, m7G(5′)ppp(5′)(2′OMeU)p(2′OMeG)]
Mass of final product obtained from 1 ml mRNA synthesis reaction system (T7 Enzyme Mix): 4.7 mg | mRNA capping rates when using different Cap structures (mRNA): 94.72% | Intracellular immunogenicity of mRNA when using different Cap structures [1]: 0.48

CO[C@@H]1[C@H](O)[C@@H](COP(=O)(O)O[C@H]2[C@@H](OC)[C@H](n3cnc4c(N)ncnc43)O[C@@H]2COP(=O)(O)OP(=O)(O)OP(=O)([O-])OC[C@H]2O[C@@H](n3c[n+](C)c4c(=O)[nH]c(N)nc43)[C@H](O)[C@@H]2O)O[C@H]1n1cnc2c(N)ncnc21 [Cap analog 5, m7G(5′)ppp(5′)(2′OMeA)p(2′OMeA)]
Mass of final product obtained from 1 ml mRNA synthesis reaction system (T7 Enzyme Mix): 4.4 mg | mRNA capping rates when using different Cap structures (mRNA): 94.88% | Intracellular immunogenicity of mRNA when using different Cap structures [1]: 0.52

CO[C@@H]1[C@H](O)[C@@H](COP(=O)(O)O[C@H]2[C@@H](OC)[C@H](n3cnc4c(=O)[nH]c(N)nc43)O[C@@H]2COP(=O)(O)OP(=O)(O)OP(=O)([O-])OC[C@H]2O[C@@H](n3c[n+](C)c4c(=O)[nH]c(N)nc43)[C@H](O)[C@@H]2O)O[C@H]1n1cnc2c(N)ncnc21 [Cap analog 6, m7G(5′)ppp(5′)(2′OMeG)p(2′OMeA)]
Mass of final product obtained from 1 ml mRNA synthesis reaction system (T7 Enzyme Mix): 5.1 mg | mRNA capping rates when using different Cap structures (mRNA): 94.65% | Intracellular immunogenicity of mRNA when using different Cap structures [1]: 0.38

CO[C@@H]1[C@H](OP(=O)(O)OC[C@H]2O[C@@H](n3cnc4c(N)ncnc43)[C@H](OC)[C@@H]2O)[C@@H](COP(=O)(O)OP(=O)(O)OP(=O)([O-])OC[C@H]2O[C@@H](n3c[n+](C)c4c(=O)[nH]c(N)nc43)[C@H](O)[C@@H]2O)O[C@H]1n1ccc(N)nc1=O [Cap analog 7, m7G(5′)ppp(5′)(2′OMeC)p(2′OMeA)]
Mass of final product obtained from 1 ml mRNA synthesis reaction system (T7 Enzyme Mix): 5.3 mg | mRNA capping rates when using different Cap structures (mRNA): 94.76% | Intracellular immunogenicity of mRNA when using different Cap structures [1]: 0.24

CO[C@@H]1[C@H](OP(=O)(O)OC[C@H]2O[C@@H](n3cnc4c(N)ncnc43)[C@H](OC)[C@@H]2O)[C@@H](COP(=O)(O)OP(=O)(O)OP(=O)([O-])OC[C@H]2O[C@@H](n3c[n+](C)c4c(=O)[nH]c(N)nc43)[C@H](O)[C@@H]2O)O[C@H]1n1ccc(=O)[nH]c1=O [Cap analog 8, m7G(5′)ppp(5′)(2′OMeU)p(2′OMeA)]
Mass of final product obtained from 1 ml mRNA synthesis reaction system (T7 Enzyme Mix): 5.3 mg | mRNA capping rates when using different Cap structures (mRNA): 94.79% | Intracellular immunogenicity of mRNA when using different Cap structures [1]: 0.31

CO[C@@H]1[C@H](O)[C@@H](COP(=O)(O)O[C@H]2[C@@H](OC)[C@H](n3cnc4c(N)ncnc43)O[C@@H]2COP(=O)(O)OP(=O)(O)OP(=O)([O-])OC[C@H]2O[C@@H](n3c[n+](C)c4c(=O)[nH]c(N)nc43)[C@H](O)[C@@H]2O)O[C@H]1n1ccc(N)nc1=O [Cap analog 9, m7G(5′)ppp(5′)(2′OMeA)p(2′OMeC)]
Mass of final product obtained from 1 ml mRNA synthesis reaction system (T7 Enzyme Mix): 4.8 mg | mRNA capping rates when using different Cap structures (mRNA): 94.73% | Intracellular immunogenicity of mRNA when using different Cap structures [1]: 0.4

CO[C@@H]1[C@H](O)[C@@H](COP(=O)(O)O[C@H]2[C@@H](OC)[C@H](n3cnc4c(=O)[nH]c(N)nc43)O[C@@H]2COP(=O)(O)OP(=O)(O)OP(=O)([O-])OC[C@H]2O[C@@H](n3c[n+](C)c4c(=O)[nH]c(N)nc43)[C@H](O)[C@@H]2O)O[C@H]1n1ccc(N)nc1=O [Cap analog 10, m7G(5′)ppp(5′)(2′OMeG)p(2′OMeC)]
Mass of final product obtained from 1 ml mRNA synthesis reaction system (T7 Enzyme Mix): 6.0 mg | mRNA capping rates when using different Cap structures (mRNA): 94.93% | Intracellular immunogenicity of mRNA when using different Cap structures [1]: 0.18

CO[C@@H]1[C@H](O)[C@@H](COP(=O)(O)O[C@H]2[C@@H](OC)[C@H](n3ccc(N)nc3=O)O[C@@H]2COP(=O)(O)OP(=O)(O)OP(=O)([O-])OC[C@H]2O[C@@H](n3c[n+](C)c4c(=O)[nH]c(N)nc43)[C@H](O)[C@@H]2O)O[C@H]1n1ccc(N)nc1=O [Cap analog 11, m7G(5′)ppp(5′)(2′OMeC)p(2′OMeC)]
Mass of final product obtained from 1 ml mRNA synthesis reaction system (T7 Enzyme Mix): 4.7 mg | mRNA capping rates when using different Cap structures (mRNA): 95.2% | Intracellular immunogenicity of mRNA when using different Cap structures [1]: 0.31

CO[C@@H]1[C@H](O)[C@@H](COP(=O)(O)O[C@H]2[C@@H](OC)[C@H](n3ccc(=O)[nH]c3=O)O[C@@H]2COP(=O)(O)OP(=O)(O)OP(=O)([O-])OC[C@H]2O[C@@H](n3c[n+](C)c4c(=O)[nH]c(N)nc43)[C@H](O)[C@@H]2O)O[C@H]1n1ccc(N)nc1=O [Cap analog 12, m7G(5′)ppp(5′)(2′OMeU)p(2′OMeC)]
Mass of final product obtained from 1 ml mRNA synthesis reaction system (T7 Enzyme Mix): 4.9 mg | mRNA capping rates when using different Cap structures (mRNA): 94.86% | Intracellular immunogenicity of mRNA when using different Cap structures [1]: 0.19

CO[C@@H]1[C@H](O)[C@@H](COP(=O)(O)O[C@H]2[C@@H](OC)[C@H](n3cnc4c(N)ncnc43)O[C@@H]2COP(=O)(O)OP(=O)(O)OP(=O)([O-])OC[C@H]2O[C@@H](n3c[n+](C)c4c(=O)[nH]c(N)nc43)[C@H](O)[C@@H]2O)O[C@H]1n1ccc(=O)[nH]c1=O [Cap analog 13, m7G(5′)ppp(5′)(2′OMeA)p(2′OMeU)]
Mass of final product obtained from 1 ml mRNA synthesis reaction system (T7 Enzyme Mix): 5.1 mg | mRNA capping rates when using different Cap structures (mRNA): 94.77% | Intracellular immunogenicity of mRNA when using different Cap structures [1]: 0.23

CO[C@@H]1[C@H](O)[C@@H](COP(=O)(O)O[C@H]2[C@@H](OC)[C@H](n3cnc4c(=O)[nH]c(N)nc43)O[C@@H]2COP(=O)(O)OP(=O)(O)OP(=O)([O-])OC[C@H]2O[C@@H](n3c[n+](C)c4c(=O)[nH]c(N)nc43)[C@H](O)[C@@H]2O)O[C@H]1n1ccc(=O)[nH]c1=O [Cap analog 14, m7G(5′)ppp(5′)(2′OMeG)p(2′OMeU)]
Mass of final product obtained from 1 ml mRNA synthesis reaction system (T7 Enzyme Mix): 5.5 mg | mRNA capping rates when using different Cap structures (mRNA): 94.82% | Intracellular immunogenicity of mRNA when using different Cap structures [1]: 0.35
